# Laboratory results as given in patent US20100144891A1, “USE OF CYCLOHEXANEHEXOL DERIVATIVES IN THE TREATMENT OF AMYOTROPHIC LATERAL SCLEROSIS” (priority 2007, published 2010).
# “Also recorded” adds a separate entry of the source.
# Key:
# [1] = system: folate-resistant mouse neural tube defects; settings: compared with myo-inositol; cited from earlier work
# [2] = system: cytidine monophosphorylphosphatidate; settings: cited from earlier work
# SOD1 G93V protein [3] = target: T1, SOD1 G93V protein (Homo sapiens, UniProt P00441, G94V); test: Trifluoroethanol (TFE)-induced SOD1 aggregation, thioflavin T (ThT) fluorescence; assay type: biochemical; settings: SOD1:scyllo-inositol ratio 1:1, 1:10, 1:20 vs untreated
# T1 sequence (P00441 whole entry G94V): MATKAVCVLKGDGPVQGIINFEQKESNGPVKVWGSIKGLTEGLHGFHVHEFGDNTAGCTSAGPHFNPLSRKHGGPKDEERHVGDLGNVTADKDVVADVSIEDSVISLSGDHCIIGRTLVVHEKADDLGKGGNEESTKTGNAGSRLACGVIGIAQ
# Source text: (§1) FIG. 1. Aggregation of SOD1 […] protein in the presence and absence of scyllo-inositol. […] Untreated (blue), SOD1:scyllo-inositol ratio of 1:1 (blue), 1:10 (pink) and 1:20(yellow). […] Inositol related compounds were screened in aggregation assays of apo-SOD1 and the following SOD1 mutants, […] and […]. The […] mutant was chosen for its fast aggregation kinetics, while the […] is intermediary between […] and the slow kinetics of apo-SOD1 (Stathopulos, P. B., et al. (2006) J. Biol. Chem. 281, 6184-6193). Using trifluoroethanol (TFE)-induced aggregation, all three SOD1 proteins aggregate maximally within a 2 hour window (Stathopulos P B, et al. (2003) Proc Natl Acad Soc USA. 100:7021-7026). […] The results were confirmed using a bis-ANS assay that determines the exposure of hydrophobic faces on proteins, as aggregation occurs dye binding to SOD1 should increase ([…], Cunningham P, et al (2002) J Biol. Chem. 277:47551-46556). In the presence of scyllo-inositol, the bis-ANS signal was lower than when protein was incubated alone.
# SOD1 G93V protein [4] = target: T1, SOD1 G93V protein; test: bis-ANS assay (exposure of hydrophobic faces on SOD1); assay type: biochemical; settings: in the presence of scyllo-inositol vs protein incubated alone
# Source text: as §1
# Tg SOD1 G37R mice [5] = test: Foot print analyses of gait in ALS mouse model; assay type: in vivo
# Method: (§2) FIG. 2. Motor function of TgSOD1 G37R mice treated or untreated with scyllo-inositol was evaluated using the Rotarod and footprint analyses of gait. […] Stride length 37±2 mm for treated and 18±2 mm for untreated mice (p<0.001). […] Mice were untreated (n=5) or treated with scyllo-inositol (n=5) in drinking water ad libitum from 6.5 months of age and are ongoing at 12 months. Starting at 7.5 months of age, mice underwent weekly evaluation of motor function using the Rotarod test. Mice were given three consecutive trials and the mean time to fall was calculated. […] At 12 months of age, two treated mice were still remaining on the rotarod for >50 sec; untreated mice lost this ability at 11 months of age. […] Scyllo-inositol treatment maintained gait with treated 37±2 versus 18±2 mm stride length in Tg mice (p<0.001).
# SOD1G93A = test: Negative stain electron microscopy of SOD1 aggregates/fibres; assay type: biochemical; settings: vs control samples / SOD1 incubated alone
# apoSOD1 and mutant SOD1 = test: Time course study of ThT signal (kinetics of assembly of SOD1 aggregates); assay type: biochemical; settings: in the presence of scyllo-inositol
# Method: Inositol related compounds were screened in aggregation assays of apo-SOD1 and the following SOD1 mutants, […] and […]. The […] mutant was chosen for its fast aggregation kinetics, while the […] is intermediary between […] and the slow kinetics of apo-SOD1 (Stathopulos, P. B., et al. (2006) J. Biol. Chem. 281, 6184-6193). Using trifluoroethanol (TFE)-induced aggregation, all three SOD1 proteins aggregate maximally within a 2 hour window (Stathopulos P B, et al. (2003) Proc Natl Acad Soc USA. 100:7021-7026). […] The results were confirmed using a bis-ANS assay that determines the exposure of hydrophobic faces on proteins, as aggregation occurs dye binding to SOD1 should increase ([…], Cunningham P, et al (2002) J Biol. Chem. 277:47551-46556). In the presence of scyllo-inositol, the bis-ANS signal was lower than when protein was incubated alone.
# Tg SOD1 G37R mice [6] = test: Rotarod test of motor function in ALS mouse model; assay type: in vivo
# Method: as §2
# [7] = target: Apo-wild type SOD1 protein (Homo sapiens, UniProt P00441); test: Trifluoroethanol-induced aggregation of Apo-wild type SOD1, thioflavin T signal; assay type: biochemical; settings: SOD1:scyllo-inositol 1:20, 15 minute incubation
# Sequence of Apo-wild type SOD1 protein (P00441 whole entry): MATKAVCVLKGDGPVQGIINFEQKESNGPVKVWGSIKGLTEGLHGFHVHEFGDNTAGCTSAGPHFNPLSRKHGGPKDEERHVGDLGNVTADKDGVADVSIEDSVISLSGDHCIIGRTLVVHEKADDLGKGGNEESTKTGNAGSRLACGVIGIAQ
# Method: FIG. 3. ApoSOD aggregation-Trifluoroethanol-induced aggregation of Apo-wild type SOD1 protein in the presence and absence of scyllo-inositol after a 15 minute incubation. The thioflavin T signal increases in the presence of scyllo-inositol. Untreated (blue) and SOD1:scyllo-inositol ratio of 1:20(yellow). Inositol related compounds were screened in aggregation assays of apo-SOD1 and the following SOD1 mutants, […] and […]. The […] mutant was chosen for its fast aggregation kinetics, while the […] is intermediary between […] and the slow kinetics of apo-SOD1 (Stathopulos, P. B., et al. (2006) J. Biol. Chem. 281, 6184-6193). Using trifluoroethanol (TFE)-induced aggregation, all three SOD1 proteins aggregate maximally within a 2 hour window (Stathopulos P B, et al. (2003) Proc Natl Acad Soc USA. 100:7021-7026). […] The results were confirmed using a bis-ANS assay that determines the exposure of hydrophobic faces on proteins, as aggregation occurs dye binding to SOD1 should increase ([…], Cunningham P, et al (2002) J Biol. Chem. 277:47551-46556). In the presence of scyllo-inositol, the bis-ANS signal was lower than when protein was incubated alone.
# apo-SOD1 G93S protein = apo-SOD1 G93S protein (Homo sapiens, UniProt P00441, G94S); test: Trifluoroethanol-induced aggregation of apo-SOD1 G93S, thioflavin T signal; assay type: biochemical; settings: SOD1:scyllo-inositol 1:20, as a function of time
# Sequence of apo-SOD1 G93S protein (P00441 whole entry G94S): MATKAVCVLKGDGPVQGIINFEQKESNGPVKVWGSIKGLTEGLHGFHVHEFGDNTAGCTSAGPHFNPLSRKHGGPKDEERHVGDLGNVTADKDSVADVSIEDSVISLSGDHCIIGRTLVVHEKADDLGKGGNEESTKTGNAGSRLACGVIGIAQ
# Source text: FIG. 4. ApoSOD1 G93S mutant aggregation—Trifluoroethanol-induced aggregation of apo-SOD1 G93S protein in the presence and absence of scyllo-inositol as a function of time. […] Untreated (blue) and SOD1:scyllo-inositol ratio of 1:20(yellow).
# Inositol related compounds were screened in aggregation assays of apo-SOD1 and the following SOD1 mutants, G93V and G93S. The G93V mutant was chosen for its fast aggregation kinetics, while the G93S is intermediary between G93V and the slow kinetics of apo-SOD1 (Stathopulos, P. B., et al. (2006) J. Biol. Chem. 281, 6184-6193). Using trifluoroethanol (TFE)-induced aggregation, all three SOD1 proteins aggregate maximally within a 2 hour window (Stathopulos P B, et al. (2003) Proc Natl Acad Soc USA. 100:7021-7026). […] The results were confirmed using a bis-ANS assay that determines the exposure of hydrophobic faces on proteins, as aggregation occurs dye binding to SOD1 should increase (Rakhit R, Cunningham P, et al (2002) J Biol. Chem. 277:47551-46556). In the presence of scyllo-inositol, the bis-ANS signal was lower than when protein was incubated alone.
smiles,measurement,setting,value
OC1C(O)C(O)C(O)C(O)C1O [D-chiro-inositol],prevention of folate-resistant neural tube defects,[1],more effective than myo-inositol
"OC1C(O)C(O)C(O)C(O)C1O (stereo not drawn) [Epi-inositol, epi-inositol]",reversing lithium effects on cytidine monophosphorylphosphatidate,[2],effective
O[C@H]1[C@H](O)[C@@H](O)[C@H](O)[C@@H](O)[C@@H]1O [scyllo-inositol],Thioflavin T (ThT) fluorescence signal,SOD1 G93V protein [3],increased; also recorded: increases in a scyllo-inositol concentration dependent manner
same,bis-ANS signal,SOD1 G93V protein [4],lower; also recorded: decreases
same,stride length,"Tg SOD1 G37R mice [5]; treated Tg SOD1 G37R mice, untreated 18±2 mm, p<0.001",37±2 mm
same,gait (foot print analyses),Tg SOD1 G37R mice [5]; treated versus untreated Tg mice,maintained
same,number of SOD1 aggregates/fibres (negative stain electron microscopy),SOD1G93A,decreased; also recorded: no fibres were detected
same,kinetics of assembly of SOD1 aggregates,apoSOD1 and mutant SOD1,greatly reduced; also recorded: most effective compound
same,onset of disease,"Tg SOD1 G37R mice [6]; Tg SOD1 G37R mice, scyllo-inositol in drinking water ad libitum from 6.5 months of age, untreated 10.1±0.06",10.6±0.22 months
same,time remaining on the rotarod,"Tg SOD1 G37R mice [6]; at 12 months of age, two treated mice, untreated mice lost this ability at 11 months",> 50 s
same,motor function on the rotarod (latency to fall),"Tg SOD1 G37R mice [6]; treated vs untreated Tg SOD1 G37R mice, p=0.029",improvement; also recorded: significantly better
same,Thioflavin T signal / trifluoroethanol-induced aggregation,[7],increases
same,Thioflavin T signal / trifluoroethanol-induced aggregation,apo-SOD1 G93S protein,increased; also recorded: increases in the presence of scyllo-inositol to a greater extent than in apo-SOD1 G93S protein alone
